Assay results as given in patent publication US20050245399A1, “Pyrazole derivatives as herbicidal compositions containing them” (ISHIHARA SANGYO KAISHA, LTD., priority 2004, published 2005).

Assays:
Assay type in all cases: in vivo
[1] = test system: green foxtail (Setaria viridis L.), SETVI; test: Test Example 2 post-emergence (foliage treatment) herbicidal activity, SETVI
Procedure, shortened: (§1)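 Foliar spray of formulated compound (500 L/ha dilution water, 0.1% v/v spreader) onto young potted plants at defined leaf stages. Scored 0-100% by visual inspection 20-23 d post-spray.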

[2] = test system: corn (Zea mays L.): ZEAMX; test: Test Example 1 pre-emergence herbicidal activity, ZEAMX; details: Rate 63 g a.i./ha, visually observed 20th to 23rd day after application
Procedure, shortened: (§2)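 Herbicidal effect in pre-emergence treatment: formulated compound sprayed at 500 L/ha water one day after sowing in upland field soil pots, with visual 0–100% growth-control scores recorded 20–23 days after application.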

[3] = test system: crabgrass (Digitaria sanguinalis L.): DIGSA; test: Test Example 1 pre-emergence herbicidal activity, DIGSA; details: Rate 63 g a.i./ha, visually observed 20th to 23rd day after application
Procedure, shortened: as §2

[4] = test system: redroot pigweed (Amaranthus retroflexus L.): AMARE; test: Test Example 1 pre-emergence herbicidal activity, AMARE; details: Rate 63 g a.i./ha, visually observed 20th to 23rd day after application
Procedure, shortened: as §2

[5] = test system: crabgrass (Digitaria sanguinalis L.), DIGSA; test: Test Example 2 post-emergence (foliage treatment) herbicidal activity, DIGSA
Procedure, shortened: (§3)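 A small sprayer delivered the diluted WP or EC formulation (500 L/ha water, 0.1% v/v spreader) over emerged seedlings in upland soil pots. Damage relative to untreated plants was graded visually from 0 to 100% three weeks or so later (days 20-23).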

[6] = test system: japanese ribbon wapato (Sagittaria pygmaea: SA GPY); test: Test Example 3 water application herbicidal activity (paddy), SAGPY; details: 63 g a.i./ha, water application under submerged condition, tubers planted, visually observed 14th day after application; 0 = untreated control, 100 = complete kill
Procedure, shortened: (§4)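 Flooded paddy-soil pots in greenhouse; ECHOR and SCPJO sown, SAGPY tubers planted a day later, compound applied into 3–4 cm water at weeds' 0.5-leaf stage. Rice transplanted at 2-leaf stage, treated day 4 after transplanting. Visual growth control 0–100% at 14 days (weeds) and 21 days (rice) after application.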

[7] = test system: prickly sida (Sida spinosa L.): SEDSP; test: Test Example 1 pre-emergence herbicidal activity, SIDSP; details: Rate 63 g a.i./ha, visually observed 20th to 23rd day after application
Procedure, shortened: as §2

[8] = test system: barnyardgrass (Echinochloa crus-galli L.): ECHCG; test: Test Example 1 pre-emergence herbicidal activity, ECHCG; details: Rate 63 g a.i./ha, visually observed 20th to 23rd day after application
Procedure, shortened: as §2

[9] = test system: wheat (Triticum aestivum L.): TRZAX; test: Test Example 1 pre-emergence herbicidal activity, TRZAX; details: Rate 63 g a.i./ha, visually observed 20th to 23rd day after application
Procedure, shortened: as §2

[10] = test system: barnyardgrass (Echinochloa crus-galli L.), ECHCG; test: Test Example 2 post-emergence (foliage treatment) herbicidal activity, ECHCG
Procedure, shortened: as §3

[11] = test system: rice (Oryza sativa L.): ORYSA; test: Test Example 1 pre-emergence herbicidal activity, ORYSA; details: Rate 63 g a.i./ha, visually observed 20th to 23rd day after application
Procedure, shortened: as §2

[12] = test system: velvetleaf (Abutilon theophrasti): ABUTH; test: Test Example 1 pre-emergence herbicidal activity, ABUTH; details: Rate 63 g a.i./ha, visually observed 20th to 23rd day after application
Procedure, shortened: as §2

[13] = test system: redroot pigweed (Amaranthus retroflexus L.), AMARE; test: Test Example 2 post-emergence (foliage treatment) herbicidal activity, AMARE
Procedure, shortened: as §3

[14] = test system: rice (Oryza sativa L.), ORYSA; test: Test Example 2 post-emergence (foliage treatment) herbicidal activity, ORYSA
Procedure, shortened: as §3

[15] = test system: rice (Oryza sativa L.: ORYSA); test: Test Example 3 water application herbicidal activity (paddy), transplanted rice ORYSA; details: 63 g a.i./ha, water application 4th day after transplantation of 2 leaf stage rice, visually observed 21st day after application; 0 = untreated control, 100 = complete kill
Procedure, shortened: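 Compound, as diluted wettable powder or emulsifiable concentrate, was pipetted into flood water at a set active-ingredient dose. Weeds were treated at 0.5-leaf stage after sowing or tuber planting; 2-leaf rice 4 days post-transplant. Control scored visually, 0 untreated to 100 complete kill, weeds day 14, rice day 21.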

[16] = test system: soybean (Glycine max Merr.): GLXMA; test: Test Example 1 pre-emergence herbicidal activity, GLXMA; details: Rate 63 g a.i./ha, visually observed 20th to 23rd day after application
Procedure, shortened: as §2

[17] = test system: green foxtail (Setaria viridis L.): SETVI; test: Test Example 1 pre-emergence herbicidal activity, SETVI; details: Rate 63 g a.i./ha, visually observed 20th to 23rd day after application
Procedure, shortened: as §2

[18] = test system: velvetleaf (Abutilon theophrasti), ABUTH; test: Test Example 2 post-emergence (foliage treatment) herbicidal activity, ABUTH
Procedure, shortened: as §1

[19] = test system: corn (Zea mays L.), ZEAMX; test: Test Example 2 post-emergence (foliage treatment) herbicidal activity, ZEAMX
Procedure, shortened: as §1

[20] = test system: japanese bulrush (Scirpus juncoides: SCPJO); test: Test Example 3 water application herbicidal activity (paddy), SCPJO; details: 63 g a.i./ha, water application under submerged condition at 0.5 leaf stage, visually observed 14th day after application; 0 = untreated control, 100 = complete kill
Procedure, shortened: as §4

[21] = test system: wheat (Triticum aestivum L.), TRZAX; test: Test Example 2 post-emergence (foliage treatment) herbicidal activity, TRZAX
Procedure, shortened: as §1

[22] = test system: soybean (Glycine max Merr.), GLXMA; test: Test Example 2 post-emergence (foliage treatment) herbicidal activity, GLXMA
Procedure, shortened: as §1

[23] = test system: prickly sida (Sida spinosa L.), SIDSP; test: Test Example 2 post-emergence (foliage treatment) herbicidal activity, SIDSP
Procedure, shortened: as §1

[24] = test system: barnyardgrass (Echinochiloa oryzicola: ECHOR); test: Test Example 3 water application herbicidal activity (paddy), ECHOR; details: 63 g a.i./ha, water application under submerged condition at 0.5 leaf stage, visually observed 14th day after application; 0 = untreated control, 100 = complete kill
Procedure, shortened: as §4

Row | Compound | Pre-emergence Herbicidal Activity ZEAMX (growth controlling degree) [2] [%] | Pre-emergence Herbicidal Activity DIGSP (growth controlling degree) [3] [%] | Pre-emergence Herbicidal Activity AMARE (growth controlling degree) [4] [%] | growth controlling degrees (%) SAGPY [6] [%] | Pre-emergence Herbicidal Activity SIDSP (growth controlling degree) [7] [%] | Pre-emergence Herbicidal Activity ECHCG (growth controlling degree) [8] [%] | Pre-emergence Herbicidal Activity TRZAX (growth controlling degree) [9] [%] | Pre-emergence Herbicidal Activity ORYSA (growth controlling degree) [11] [%] | Pre-emergence Herbicidal Activity ABUTH (growth controlling degree) [12] [%] | growth controlling degrees (%) ORYSA [15] [%] | Pre-emergence Herbicidal Activity GLXMA (growth controlling degree) [16] [%] | Pre-emergence Herbicidal Activity SETVI (growth controlling degree) [17] [%] | growth controlling degrees (%) SCPJO [20] [%] | growth controlling degrees (%) ECHOR [24] [%] | growth controlling degree, SETVI ([1]; 63 g a.i./ha) [%] | growth controlling degree, DIGSP ([5]; 63 g a.i./ha) [%] | growth controlling degree, ECHCO ([10]; 63 g a.i./ha) [%] | growth controlling degree, AMARE ([13]; 63 g a.i./ha) [%] | growth controlling degree, ORYSA ([14]; 63 g a.i./ha) [%] | growth controlling degree, ABUTH ([18]; 63 g a.i./ha) [%] | also measured
1 | COc1c(Cl)cc(F)c(-c2nn(C)c(OC(F)F)c2Cl)c1NC(=O)CCc1ccccc1 [Compound 1-21] | 20 | 100 | 100 | 100 | 100 | 95 | 0 | 40 | 100 | 50 | 10 | 100 | 70 | 100 | – | – | – | – | – | – | growth controlling degree, SETVI ([1]; 31 g a.i./ha): 95%; growth controlling degree, DIGSP ([5]; 31 g a.i./ha): 60%; growth controlling degree, ECHCO ([10]; 31 g a.i./ha): 80%; growth controlling degree, AMARE ([13]; 31 g a.i./ha): 100%; growth controlling degree, ORYSA ([14]; 31 g a.i./ha): 90%; growth controlling degree, ABUTH ([18]; 31 g a.i./ha): 100%; growth controlling degree, ZEAMX ([19]; 31 g a.i./ha): 90%; growth controlling degree, TRZAX ([21]; 31 g a.i./ha): 40%; growth controlling degree, GLXMA ([22]; 31 g a.i./ha): 70%; growth controlling degree, SIDSP ([23]; 31 g a.i./ha): 100%
2 | COc1c(Cl)cc(F)c(-c2nn(C)c(OC(F)F)c2Cl)c1NC(=O)COc1ccc(C#N)cc1 [Compound 1-36] | 0 | 30 | 100 | 70 | 20 | 10 | 0 | 10 | 30 | 35 | 0 | 60 | 40 | 100 | 60 | 60 | 50 | 100 | 20 | 100 | growth controlling degree, ZEAMX ([19]; 63 g a.i./ha): 0%; growth controlling degree, TRZAX ([21]; 63 g a.i./ha): 10%; growth controlling degree, GLXMA ([22]; 63 g a.i./ha): 50%; growth controlling degree, SIDSP ([23]; 63 g a.i./ha): 100%
3 | COc1c(Cl)cc(F)c(-c2nn(C)c(OC(F)F)c2Cl)c1NC(=O)c1ccccc1Cl [Compound 1-23] | 0 | 100 | 100 | 98 | 100 | 80 | 40 | 40 | 90 | 40 | 30 | 95 | 80 | 100 | 100 | 90 | 98 | 100 | 90 | 100 | growth controlling degree, ZEAMX ([19]; 63 g a.i./ha): 80%; growth controlling degree, TRZAX ([21]; 63 g a.i./ha): 40%; growth controlling degree, GLXMA ([22]; 63 g a.i./ha): 98%; growth controlling degree, SIDSP ([23]; 63 g a.i./ha): 100%
4 | C#CCNc1c(OC)c(Cl)cc(F)c1-c1nn(C)c(OC(F)F)c1Cl [Compound 1-53] | 20 | 100 | 100 | 100 | 100 | 100 | 20 | 50 | 100 | 70 | 30 | 100 | 100 | 100 | 100 | 100 | 100 | 100 | 95 | 100 | growth controlling degree, ZEAMX ([19]; 63 g a.i./ha): 100%; growth controlling degree, TRZAX ([21]; 63 g a.i./ha): 40%; growth controlling degree, GLXMA ([22]; 63 g a.i./ha): 95%; growth controlling degree, SIDSP ([23]; 63 g a.i./ha): 100%
5 | COc1ccc(C(=O)Nc2c(OC)c(Cl)cc(F)c2-c2nn(C)c(OC(F)F)c2Cl)cc1 [Compound 1-29] | 20 | 100 | 100 | 60 | 100 | 80 | 10 | 40 | 100 | 50 | 20 | 100 | 50 | 100 | 100 | 100 | 100 | 100 | 80 | 95 | growth controlling degree, ZEAMX ([19]; 63 g a.i./ha): 60%; growth controlling degree, TRZAX ([21]; 63 g a.i./ha): 50%; growth controlling degree, GLXMA ([22]; 63 g a.i./ha): 100%; growth controlling degree, SIDSP ([23]; 63 g a.i./ha): 100%
